{"source": "patent US12371436B2", "about": "“Substituted benzodiazoliums as ENaC inhibitors” (ENTERPRISE THERAPEUTICS LIMITED, priority 2016, dated 2025)", "note": "Where a name gives a salt, the structure may show the parent alone.", "data": [{"molecular_target": "T1, ENaC (Homo sapiens, UniProt P37088+P51168+P51170)", "T1 construct": "host or cells: primary human bronchial epithelial cells (HBECs) differentiated at air-liquid interface", "T1 sequence (P37088 1-669)": "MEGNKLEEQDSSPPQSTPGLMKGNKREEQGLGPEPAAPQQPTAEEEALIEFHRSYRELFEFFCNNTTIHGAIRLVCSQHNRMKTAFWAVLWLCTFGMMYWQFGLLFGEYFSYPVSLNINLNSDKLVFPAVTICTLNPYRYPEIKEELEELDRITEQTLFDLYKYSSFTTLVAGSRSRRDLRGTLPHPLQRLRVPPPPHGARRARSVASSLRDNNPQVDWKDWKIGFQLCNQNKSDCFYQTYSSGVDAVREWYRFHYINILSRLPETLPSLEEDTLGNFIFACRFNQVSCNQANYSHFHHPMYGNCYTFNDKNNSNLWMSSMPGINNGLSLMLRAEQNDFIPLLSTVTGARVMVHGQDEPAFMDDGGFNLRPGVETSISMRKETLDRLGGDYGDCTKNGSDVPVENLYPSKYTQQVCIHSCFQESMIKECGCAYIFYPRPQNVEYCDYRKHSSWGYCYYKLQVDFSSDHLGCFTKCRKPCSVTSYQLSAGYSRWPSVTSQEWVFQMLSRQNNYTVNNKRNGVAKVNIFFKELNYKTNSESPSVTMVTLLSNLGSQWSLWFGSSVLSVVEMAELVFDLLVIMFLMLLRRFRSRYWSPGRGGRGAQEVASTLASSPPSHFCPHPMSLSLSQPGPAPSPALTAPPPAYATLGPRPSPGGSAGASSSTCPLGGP", "T1 sequence (P51168 1-640)": "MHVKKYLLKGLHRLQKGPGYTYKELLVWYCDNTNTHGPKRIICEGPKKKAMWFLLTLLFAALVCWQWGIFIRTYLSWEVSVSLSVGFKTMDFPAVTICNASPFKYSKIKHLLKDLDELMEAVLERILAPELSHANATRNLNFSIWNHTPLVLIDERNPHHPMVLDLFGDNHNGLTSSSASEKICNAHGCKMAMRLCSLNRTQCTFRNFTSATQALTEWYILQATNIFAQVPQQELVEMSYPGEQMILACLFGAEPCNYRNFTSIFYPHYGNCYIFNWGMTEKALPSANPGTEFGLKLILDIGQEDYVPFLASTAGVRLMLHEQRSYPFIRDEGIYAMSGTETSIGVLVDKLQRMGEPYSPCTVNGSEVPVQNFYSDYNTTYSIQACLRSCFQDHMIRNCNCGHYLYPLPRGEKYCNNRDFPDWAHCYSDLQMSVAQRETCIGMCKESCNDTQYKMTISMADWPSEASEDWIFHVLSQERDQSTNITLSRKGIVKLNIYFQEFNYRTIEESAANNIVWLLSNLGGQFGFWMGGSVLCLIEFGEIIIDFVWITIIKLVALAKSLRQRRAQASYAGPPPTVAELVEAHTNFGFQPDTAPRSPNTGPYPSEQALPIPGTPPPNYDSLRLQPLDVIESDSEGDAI", "T1 sequence (P51170 1-649)": "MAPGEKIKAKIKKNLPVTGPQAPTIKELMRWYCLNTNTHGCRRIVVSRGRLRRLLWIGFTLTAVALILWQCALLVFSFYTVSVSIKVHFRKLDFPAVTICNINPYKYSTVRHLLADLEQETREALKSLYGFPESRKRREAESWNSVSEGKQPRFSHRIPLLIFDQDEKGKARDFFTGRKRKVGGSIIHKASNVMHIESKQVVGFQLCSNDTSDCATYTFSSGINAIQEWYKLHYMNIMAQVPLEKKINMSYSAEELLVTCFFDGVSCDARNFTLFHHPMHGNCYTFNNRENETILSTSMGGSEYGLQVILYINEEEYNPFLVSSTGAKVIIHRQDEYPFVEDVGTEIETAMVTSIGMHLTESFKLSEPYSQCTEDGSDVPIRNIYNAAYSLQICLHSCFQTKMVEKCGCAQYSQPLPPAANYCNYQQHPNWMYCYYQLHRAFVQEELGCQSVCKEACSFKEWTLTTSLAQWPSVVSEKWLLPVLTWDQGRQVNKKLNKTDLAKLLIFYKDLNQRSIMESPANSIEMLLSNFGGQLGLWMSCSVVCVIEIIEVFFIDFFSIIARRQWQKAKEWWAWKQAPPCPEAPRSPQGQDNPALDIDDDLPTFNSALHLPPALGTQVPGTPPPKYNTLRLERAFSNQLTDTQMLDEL", "experiment": "Short circuit current assay to determine ENaC blocker potency in human bronchial epithelial cells", "format": "cell-based", "conditions": "50% inhibition of total amiloride-sensitive ISC, apical addition, read-out: Averages.ENaC IC50 (nM) Avg", "method": "Example 68—Short circuit current assay to determine ENaC blocker potency in human bronchial epithelial cells\nHuman bronchial epithelial cells (HBECs) (Lonza, UK) were cultured using a modification of the method described by Coote et al, (2008). Cells were seeded into plastic T-75 flasks and grown in Bronchial Epithelial Cell Growth Medium (BEGM) (Lonza, UK) supplemented with bovine pituitary extract (52 ng/mL), hydrocortisone (0.5 μg/mL), human recombinant Epidermal Growth Factor (0.5 ng/mL), epinephrine (0.5 ng/mL), transferrin (10 ng/mL), insulin (5 ng/mL), retinoic acid (0.1 ng/mL), triiodothyronine (6.5 ng/mL), gentamycin (50 μg/mL) and amphotericin-B (50 ng/mL). Medium was changed every 48 hours until cells were 90% confluent. Cells were then passaged and seeded (8.25×10^5 cells/insert) onto polycarbonate Snapwell™ inserts (Costar, UK) in differentiation media containing 50% DMEM in BGEM with the same supplements as above but without triiodothyronine and a final retinoic acid concentration of 50 nM (all-trans retinoic acid; Sigma-Aldrich, UK). Cells were maintained submerged for the first 7 days in culture after which time they were exposed to an apical air interface for the remainder of the culture period. From the first day of establishment of an ALI, HBEC were fed with a DMEM:HAMS F-12 (1:1) media containing 2% Ultroser G (Pall BioSepra, France) with gentamycin (50 μg/mL) and amphotericin B (50 ng/mL). Cells were used for short-circuit current assay between days 14-21 after the establishment of the ALI. At all stages of culture, cells were maintained at 37° C. in 5% CO2 in an air incubator.\nShort-Circuit Current (ISC) Measurements\nSnapwell inserts were mounted in Costar Vertical Diffusion Chambers (Costar, UK) and were bathed with continuously gassed Ringer solution (5% CO2 in O2; pH 7.4) maintained at 37° C. containing (in mM): 120 NaCl, 25 NaHCO3, 3.3 KH2PO4, 0.8 K2HPO4, 1.2 CaCl2, 1.2 MgCl2 and 10 glucose. The solution osmolarity was always between 280-300 mOsm/kg H2O for all physiological salt solutions used. Cells were voltage clamped to 0 mV (model EVC4000, WPI). Transepithelial resistance (RT) was measured by applying a 2 mV pulse at 30 s intervals and calculating RT by Ohm's law. Data were recorded using a PowerLab workstation (ADlnstruments, UK).\nENaC blocker compounds were added to the apical chamber from a 1000-fold stock solution (prepared in DMSO) to achieve a cumulative concentration response in terms of the inhibition of the basal ISC. At the completion of the concentration response, a supra-maximal concentration of amiloride (10 μM) was added. The concentration of test compound that induced a 50% inhibition of the total amiloride-sensitive ISC (IC50) was calculated using GraphPad Prism v6.05. The results are presented in Table 2, from which it can be seen that the compounds of the present invention have ENaC inhibiting activity.", "units": {"IC50": "nM"}, "values": [{"smiles": "CCn1c(CNC(=O)c2nc3cc[nH]c3nc2N)[n+](CC)c2ccc(C(=O)NC3CCNCC3)cc21", "note": "[Example 40, 2-[({3-amino-5H-pyrrolo[2,3-b]pyrazin-2-yl}formamido)methyl]-1,3-diethyl-6-[(piperidin-4-yl)carbamoyl]-1H-1,3-benzodiazol-3-ium]", "IC50": 7}, {"smiles": "CCn1c(CNC(=O)c2nc3c(Br)c[nH]c3nc2N)[n+](CC)c2ccc(C(=O)O)cc21", "note": "[Example 64, 2-[({3-amino-7-bromo-5H-pyrrolo[2,3-b]pyrazin-2-yl}formamido)methyl]-6-carboxy-1,3-diethyl-1H-1,3-benzodiazol-3-ium]", "IC50": 244}, {"smiles": "CCn1c(CNC(=O)c2nc3cc[nH]c3nc2N)[n+](Cc2ccccc2)c2ccc(Cl)cc21", "note": "[Example 16, 2-[({3-amino-5H-pyrrolo[2,3-b]pyrazin-2-yl}formamido)methyl]-3-benzyl-6-chloro-1-ethyl-1H-1,3-benzodiazol-3-ium]", "IC50": 10}, {"smiles": "CCn1c(CNC(=O)c2nc3c(Br)c[nH]c3nc2N)[n+](CC)c2ccc(C(=O)N3CCC(N(C[C@H](O)[C@@H](O)[C@H](O)[C@H](O)CO)C[C@H](O)[C@@H](O)[C@H](O)[C@H](O)CO)CC3)cc21", "note": "[Example 66, 2-[({3-amino-7-bromo-5H-pyrrolo[2,3-b]pyrazin-2-yl}formamido)methyl]-6-(4-{bis[(2S,3R,4R,5R)-2,3,4,5,6-pentahydroxyhexyl]amino}piperidine-1-carbonyl)-1,3-diethyl-1H-1,3-benzodiazol-3-ium]", "IC50": 199}, {"smiles": "CCn1c(CNC(=O)c2nc3cc[nH]c3nc2N)[n+](Cc2ccccc2)c2ccc(OC)cc21", "note": "[Example 8, 2-[({3-amino-5H-pyrrolo[2,3-b]pyrazin-2-yl}formamido)methyl]-3-benzyl-1-ethyl-6-methoxy-1H-1,3-benzodiazol-3-ium formate]", "IC50": 9}, {"smiles": "CCn1c(CNC(=O)c2nc3cc[nH]c3nc2N)[n+](CC)c2ccc(OCCCN(C[C@H](O)[C@@H](O)[C@H](O)[C@H](O)CO)C[C@H](O)[C@@H](O)[C@H](O)[C@H](O)CO)cc21", "note": "[Example 44, 2-[({3-amino-5H-pyrrolo[2,3-b]pyrazin-2-yl}formamido)methyl]-5-(3-{bis[(2S,3R,4R,5R)-2,3,4,5,6-pentahydroxyhexyl]amino}propoxy)-1,3-diethyl-1H-1,3-benzodiazol-3-ium]", "IC50": 21}, {"smiles": "CCn1c(CNC(=O)c2nc3c(C)c[nH]c3nc2N)[n+](CC)c2ccc(Cl)cc21", "note": "[Example 20, 2-[({3-amino-7-methyl-5H-pyrrolo[2,3-b]pyrazin-2-yl}formamido)methyl]-6-chloro-1,3-diethyl-1H-1,3-benzodiazol-3-ium]", "IC50": 4}, {"smiles": "CCn1c(CNC(=O)c2nc3cc[nH]c3nc2N)[n+](CC)c2ccc(C3CCN(C[C@H](O)[C@@H](O)[C@H](O)[C@H](O)CO)CC3)cc21", "note": "[Example 46, 2-[({3-amino-5H-pyrrolo[2,3-b]pyrazin-2-yl}formamido)methyl]-1,3-diethyl-6-{1-[(2S,3R,4R,5R)-2,3,4,5,6-pentahydroxyhexyl]piperidin-4-yl}-1H-1,3-benzodiazol-3-ium]", "IC50": 8}, {"smiles": "CCn1c(CNC(=O)c2nc3cc[nH]c3nc2N)[n+](C)c2ccc(C(F)(F)F)cc21", "note": "[Example 5, 2-[({3-amino-5H-pyrrolo[2,3-b]pyrazin-2-yl}formamido)methyl]-1-ethyl-3-methyl-6-(trifluoromethyl)-1H-1,3-benzodiazol-3-ium formate]", "IC50": 9}, {"smiles": "CCn1c(CNC(=O)c2nc3cc[nH]c3nc2N)[n+](C)c2ccc(Cl)cc21", "note": "[Example 3, 2-[({3-amino-5H-pyrrolo[2,3-b]pyrazin-2-yl}formamido)methyl]-6-chloro-1-ethyl-3-methyl-1H-1,3-benzodiazol-3-ium formate]", "IC50": 19}, {"smiles": "CCn1c(CNC(=O)c2nc3cc[nH]c3nc2N)[n+](CC)c2ccc(C(=O)NCCCN)cc21", "note": "[Example 39, 2-[({3-amino-5H-pyrrolo[2,3-b]pyrazin-2-yl}formamido)methyl]-6-[(3-aminopropyl)carbamoyl]-1,3-diethyl-1H-1,3-benzodiazol-3-ium]", "IC50": 15}, {"smiles": "CCn1c(CNC(=O)c2nc3cc[nH]c3nc2N)[n+](Cc2ccccc2)c2ccc(C(F)(F)F)cc21", "note": "[Example 17, 2-[({3-amino-5H-pyrrolo[2,3-b]pyrazin-2-yl}formamido)methyl]-3-benzyl-1-ethyl-6-(trifluoromethyl)-1H-1,3-benzodiazol-3-ium]", "IC50": 15}, {"smiles": "CCn1c(CNC(=O)c2nc3cc[nH]c3nc2N)[n+](CC)c2ccc(C(=O)N3CCC(N)CC3)cc21", "note": "[Example 41, 2-[({3-amino-5H-pyrrolo[2,3-b]pyrazin-2-yl}formamido)methyl]-6-(4-aminopiperidine-1-carbonyl)-1,3-diethyl-1H-1,3-benzodiazol-3-ium]", "IC50": 11}, {"smiles": "CCn1c(CNC(=O)c2nc3cc[nH]c3nc2N)[n+](CCO)c2ccc(OC)cc21", "note": "[Example 13, 2-[({3-amino-5H-pyrrolo[2,3-b]pyrazin-2-yl}formamido)methyl]-1-ethyl-3-(2-hydroxyethyl)-6-methoxy-1H-1,3-benzodiazol-3-ium]", "IC50": 4}]}]}
